# In patent publication US20230108906A1, “SUBSTITUTED BICYCLIC AND TRICYCLIC UREAS AND AMIDES, ANALOGUES THEREOF, AND METHODS USING SAME” (Arbutus Biopharma Corporation, priority 2019, published 2023):
# Test system: HBV rcDNA in HepDE19 cells
# Experiment: HepDE19 assay with bDNA quantitation of HBV rcDNA
# Assay type: cell-based, hepatitis B virus (HBV)
# Conditions: Hepatitis B virus, HepDE19, 168 h, inhibition of rcDNA formation in HepDE19 cells (HepG2 derived), Tet-free medium, 7 day incubation, Quantigene 2.0 bDNA readout, top concentration 25 μM; read-out: DE-19bDNA EC50
# Procedure, shortened: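 HepDE19 cells (HepG2-derived, Tet-regulated HBV) switched to Tet-free medium, then treated 7 days at 37 °C with compound, 8-point titration from 25 μM, 0.5% DMSO. rcDNA quantified by bDNA with HBV probes; EC50/EC90 via 4-parameter fit. Viability (CC50) by CellTiter-Glo ATP on 5,000 cells/well after 4 days.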
row,Compound,EC50 [nM]
1,"CN(C(=O)Nc1ccc(F)c(Cl)c1)[C@@H]1COCc2c1c1cc(F)c(F)cc1c(=O)n2CCO [Compound 254, (S)-3-(3-Chloro-4-fluorophenyl)-1-(8,9-difluoro-5-(2-hydroxyethyl)-6-oxo-1,4,5,6-tetrahydro-2H-pyrano[3,4-c]isoquinolin-1-yl)-1-methylurea]",58
2,"CN(C(=O)Nc1ccc(F)c(C#N)c1)C1COCc2[nH]c(=O)c3ccc(F)cc3c21 (centres unmarked) [Compound 77, 3-(3-Cyano-4-fluorophenyl)-1-(9-fluoro-6-oxo-1,4,5,6-tetrahydro-2H-pyrano[3,4-c]isoquinolin-1-yl)-1-methylurea]",50
3,"CC(=O)N1Cc2[nH]c(=O)c3cc(F)ccc3c2C(N(C)C(=O)Nc2ccc(F)c(Cl)c2)C1 (single isomer, unassigned) [Compound 157, 1-(3-Acetyl-8-fluoro-6-oxo-1,2,3,4,5,6-hexahydrobenzo[c][1,7]naphthyridin-1-yl)-3-(3-chloro-4-fluorophenyl)-1-methylurea]",1200
4,"O=C(Nc1ccc(F)c(Cl)c1)N[C@@H]1COCc2[nH]c(=O)c3cc(F)c(F)cc3c21 (single isomer, unassigned) [Compound 68]",30
5,"CN(C(=O)Nc1ccc(F)c(C#N)c1)C1COCc2[nH]c(=O)c3cc(Cl)ccc3c21 (centres unmarked) [Compound 65, 1-(8-Chloro-6-oxo-1,4,5,6-tetrahydro-2H-pyrano[3,4-c]isoquinolin-1-yl)-3-(3-cyano-4-fluorophenyl)-1-methylurea]",80
6,"CN(C(=O)NC1(C(F)(F)F)CC1)[C@@H]1COCc2[nH]c(=O)c3cc(F)c(F)cc3c21 [Compound 145, (S)-1-(8,9-Difluoro-6-oxo-1,4,5,6-tetrahydro-2H-pyrano[3,4-c]isoquinolin-1-yl)-1-methyl-3-(1-(trifluoromethyl)cyclopropyl)urea]",9000
7,"CN(C(=O)Nc1ccc(F)c(Cl)c1)C1COCc2[nH]c(=O)c3cc(F)c(F)cc3c21 (racemic) [Compound 24, 3-(3-Chloro-4-fluorophenyl)-1-(8,9-difluoro-6-oxo-1,4,5,6-tetrahydro-2H-pyrano[3,4-c]isoquinolin-1-yl)-1-methylurea]",10
8,"CN(C(=O)Nc1ccc(F)c(C(F)F)c1)[C@@H]1COCc2c1c1cc(F)c(F)cc1c(=O)n2C [Compound 233, (S)-1-(8,9-Difluoro-5-methyl-6-oxo-1,4,5,6-tetrahydro-2H-pyrano[3,4-c]isoquinolin-1-yl)-3-(3-(difluoromethyl)-4-fluorophenyl)-1-methylurea]",20
9,"CN1Cc2[nH]c(=O)c3cc(F)c(F)cc3c2C(N(C)C(=O)Nc2ccc(F)c(C#N)c2)C1 (single isomer, unassigned) [Compound 174, 3-(3-Cyano-4-fluorophenyl)-1-(8,9-difluoro-3-methyl-6-oxo-1,2,3,4,5,6-hexahydrobenzo[c][1,7]naphthyridin-1-yl)-1-methylurea]",310
10,"CN(C(=O)Nc1ccc(F)c(Cl)c1)C1COCc2[nH]c(=O)c3c(F)c(F)ccc3c21 (centres unmarked) [Compound 35, 3-(3-Chloro-4-fluorophenyl)-1-(7,8-difluoro-6-oxo-1,4,5,6-tetrahydro-2H-pyrano[3,4-c]isoquinolin-1-yl)-1-methylurea]",190
11,"CN(C(=O)Nc1ccc(F)c(C#N)c1)C1COCc2[nH]c(=O)c3cc(F)c(F)cc3c21 (racemic) [Compound 106, 3-(3-Cyano-4-fluorophenyl)-1-(8,9-difluoro-6-oxo-1,4,5,6-tetrahydro-2H-pyrano[3,4-c]isoquinolin-1-yl)-1-methylurea]",20
12,"CCN(C(=O)Nc1ccc(F)c(Cl)c1)C1COCc2[nH]c(=O)c3cc(Cl)ccc3c21 (centres unmarked) [Compound 56, 3-(3-Chloro-4-fluorophenyl)-1-(8-chloro-6-oxo-1,4,5,6-tetrahydro-2H-pyrano[3,4-c]isoquinolin-1-yl)-1-ethylurea]",50
13,"CN(C(=O)Nc1cc(F)cc(Cl)c1)C1COCc2[nH]c(=O)c3ccccc3c21 (centres unmarked) [Compound 29, 3-(3-Chloro-5-fluorophenyl)-1-methyl-1-(6-oxo-1,4,5,6-tetrahydro-2H-pyrano[3,4-c]isoquinolin-1-yl)urea]",120
14,"CN(C(=O)Nc1ccc(F)c(Cl)c1)C1CC(C)(C)Cc2[nH]c(=O)c3ccccc3c21 (centres unmarked) [Compound 27, 3-(3-Chloro-4-fluorophenyl)-1-(3,3-dimethyl-6-oxo-1,2,3,4,5,6-hexahydrophenanthridin-1-yl)-1-methylurea]",12000
15,"CN(C(=O)Nc1ccc(F)c(C(F)F)c1)[C@@H]1COCc2[nH]c(=O)c3cc(F)c(F)cc3c21 (single isomer, unassigned) [Compound 126]",10
16,"CN(C(=O)NC1(C(F)(F)F)CC1)C1CCCc2[nH]c(=O)c3cc(F)c(F)cc3c21 (centres unmarked) [Compound 144, 1-(8,9-Difluoro-6-oxo-1,2,3,4,5,6-hexahydrophenanthridin-1-yl)-1-methyl-3-(1-(trifluoromethyl)cyclopropyl)urea]",20000

# Same assay, conditions: inhibition of rcDNA formation in HepDE19 cells (HepG2 derived), Tet-free medium, 7 day incubation, Quantigene 2.0 bDNA readout, top concentration 25 μM; read-out: DE-19bDNA EC50
row,Compound,EC50 [nM]
1,"CN(C(=O)N1Cc2ccc(F)cc2C1)C1CNCc2[nH]c(=O)c3cc(F)c(F)cc3c21 (single isomer, unassigned) [Compound 224, N-(8,9-Difluoro-6-oxo-1,2,3,4,5,6-hexahydrobenzo[c][1,7]naphthyridin-1-yl)-5-fluoro-N-methylisoindoline-2-carboxamide]",≥ 25000
2,"CN(C(=O)Nc1ccc(F)c(Cl)c1)C1CNCc2[nH]c(=O)c3cc(F)ccc3c21 (single isomer, unassigned) [Compound 153, 3-(3-Chloro-4-fluorophenyl)-1-(8-fluoro-6-oxo-1,2,3,4,5,6-hexahydrobenzo[c][1,7]naphthyridin-1-yl)-1-methylurea]",730
3,"CN(C(=O)Nc1ccc(F)c(C#N)c1)C1CNCc2[nH]c(=O)c3cc(F)c(F)cc3c21 (single isomer, unassigned) [Compound 175, 3-(3-Cyano-4-fluorophenyl)-1-(8,9-difluoro-6-oxo-1,2,3,4,5,6-hexahydrobenzo[c][1,7]naphthyridin-1-yl)-1-methylurea]",1500
4,"CN(C(=O)Nc1ccc(F)c(C#N)c1)C1C[S+]([O-])Cc2[nH]c(=O)c3cc(F)ccc3c21 (single isomer, unassigned) [Compound 202, 3-(3-Cyano-4-fluorophenyl)-1-(8-fluoro-3-oxido-6-oxo-1,4,5,6-tetrahydro-2H-thiopyrano[3,4-c]isoquinolin-1-yl)-1-methylurea]",≥ 25000
5,"CN(C(=O)Nc1ccc(F)c(C(F)F)c1)C1COCc2nc(NCCO)c3cc(F)c(F)cc3c21 (single isomer, unassigned) [Compound 237, 1-(8,9-Difluoro-6-((2-hydroxyethyl)amino)-1,4-dihydro-2H-pyrano[3,4-c]isoquinolin-1-yl)-3-(3-(difluoromethyl)-4-fluorophenyl)-1-methylurea]",2620
6,"CN(C(=O)Nc1ccc(F)c(F)c1)C1CCCc2[nH]c(=O)c3c(c21)CCCC3 (single isomer, unassigned) [Compound 48, 3-(3,4-Difluorophenyl)-1-methyl-1-(6-oxo-1,2,3,4,5,6,7,8,9,10-decahydrophenanthridin-1-yl)urea]",3100
7,"CCN(C(=O)Nc1ccc(F)c(F)c1)C1CCCc2[nH]c(=O)c3c(c21)CCCC3 (single isomer, unassigned) [Compound 50, 3-(3,4-Difluorophenyl)-1-ethyl-1-(6-oxo-1,2,3,4,5,6,7,8,9,10-decahydrophenanthridin-1-yl)urea]",6800
8,"CN1Cc2[nH]c(=O)c3cc(F)c(F)cc3c2C(N(C)C(=O)Nc2ccc(F)c(Cl)c2)C1 (single isomer, unassigned) [Compound 167, 3-(3-Chloro-4-fluorophenyl)-1-(8,9-difluoro-3-methyl-6-oxo-1,2,3,4,5,6-hexahydrobenzo[c][1,7]naphthyridin-1-yl)-1-methylurea]",7600
9,"CN(C(=O)Nc1ccc(F)c(Cl)c1)C1CS(=O)(=O)Cc2[nH]c(=O)c3cc(F)c(F)cc3c21 (single isomer, unassigned) [Compound 204, 3-(3-Chloro-4-fluorophenyl)-1-(8,9-difluoro-3,3-dioxido-6-oxo-1,4,5,6-tetrahydro-2H-thiopyrano[3,4-c]isoquinolin-1-yl)-1-methylurea]",1400
10,"CC(C)(O)CN(C(=O)Nc1ccc(F)c(Cl)c1)C1COCc2[nH]c(=O)c3cc(F)ccc3c21 (single isomer, unassigned) [Compound 112, 3-(3-Chloro-4-fluorophenyl)-1-(8-fluoro-6-oxo-1,4,5,6-tetrahydro-2H-pyrano[3,4-c]isoquinolin-1-yl)-1-(2-hydroxy-2-methylpropyl)urea]",1900
11,"CN(C(=O)Nc1ccc(F)c(C(F)F)c1)C1CNCc2[nH]c(=O)c3cc(F)c(F)cc3c21 (single isomer, unassigned) [Compound 216, 1-(8,9-Difluoro-6-oxo-1,2,3,4,5,6-hexahydrobenzo[c][1,7]naphthyridin-1-yl)-3-(3-(difluoromethyl)-4-fluorophenyl)-1-methylurea]",3500
12,"CN(C(=O)Nc1ccc(F)c(C#N)c1)C1C[S+]([O-])Cc2[nH]c(=O)c3cc(F)c(F)cc3c21 (single isomer, unassigned) [Compound 211, 3-(3-Cyano-4-fluorophenyl)-1-(8,9-difluoro-3-oxido-6-oxo-1,4,5,6-tetrahydro-2H-thiopyrano[3,4-c]isoquinolin-1-yl)-1-methylurea]",5500
13,"CC(=O)N1Cc2[nH]c(=O)c3cc(F)c(F)cc3c2C(N(C)C(=O)Nc2ccc(F)c(C#N)c2)C1 (single isomer, unassigned) [Compound 177, 1-(3-Acetyl-8,9-difluoro-6-oxo-1,2,3,4,5,6-hexahydrobenzo[c][1,7]naphthyridin-1-yl)-3-(3-cyano-4-fluorophenyl)-1-methylurea]",≥ 25000
